Assay results published in patent publication US11497749B2, “Mitoflavoscins: targeting flavin-containing enzymes eliminates cancer stem cells (CSCS) by inhibiting mitochondrial respiration” (LUNELLA BIOTECH, INC., priority 2017, dated 2022).
Where two headings read alike, the source gives them in different places.

Assays:
[1] = test system: MCF7 cells; test: cells; conditions: Homo sapiens, MCF7, 120 h, read-out: IC-50, reduction of CD44+/CD24- cell population
Protocol: Inventors examined specific cell surface markers, namely fluorescent antibody probes directed against CD44 and CD24. The CD44+/CD24-cell population represents a CSC-enriched fraction. 1×10^5 MCF7 cells were plated in 6-well plates in complete media supplemented with 10% heat-inactivated FBS. […] Vehicle alone (DMSO) control cells were processed in parallel. Briefly, 30,000-50,000 live cells, as identified by 7-AAD dye staining, were analyzed for CD24/CD44 expression. Inventors used CD24 (IOTest CD24-PE, Beckman Coulter) and CD44 (APC mouse Anti-Human CD44, BD Pharmingen) antibodies for fluorescence activated cell sorting (FACS) analysis, using the BD LSR Fortessa (BD Bioscience). […] One-way ANOVA was used with Bonferroi's multiple comparisons test.

[2] = test system: MCF7 cells; conditions: various concentrations, 1, 3 or 5 days, normalized to vehicle
Protocol: To confirm that the observed increase in ECAR corresponded to L-lactate production, L-lactate levels were measured directly using the ISCUS^flex Microdialysis Analyser (M Dialysis Inc., MA, USA). Culture media were collected, centrifuged and analysed with the ISCUS^flex Microdialysis Analyzer after treatment of MCF7 cells with various concentrations of DPI for 1, 3 or 5 days. Calibration of the instrument was performed by samples provided by the manufacturer. Then L-lactate levels were measured and normalized to samples taken from MCF7 cells treated with vehicle only.

[3] = test system: MCF7 cells; conditions: five days of treatment, concentration as high as 33 nM
Protocol: (§3) The inventors used a Sulphorhodamine (SRB) assay, which is based on the measurement of cellular protein content. After treatment for five days in 96-well plates, cells were fixed with 10% trichloroacetic acid (TCA) for 1 hour in the cold room, and were dried overnight at room temperature. Then, cells were incubated with SRB for 15 min, washed twice with 1% acetic acid, and air dried for at least 1 hour. Finally, the protein-bound dye was dissolved in a 10 mM Tris, pH 8.8 solution and read using the plate reader at 540-nm.

[4] = test system: MCF7 cells; test: cells
Text: (§1) A number of methods may be used for functional validation, including, for example, metabolic flux analysis, mammosphere assays, viability assays, and antibiotic (anti-bacterial and/or anti-fungal) activity. The inventors determined real-time oxygen consumption rates (OCR) and extracellular acidification rates (ECAR) in MCF7 cells using the Seahorse Extracellular Flux (XF96) analyzer (Seahorse Bioscience, Mass., USA). Briefly, MCF7 cells were maintained in DMEM supplemented with 10% FBS (fetal bovine serum), 2 mM GlutaMAX, and 1% Pen-Strep. 8,000 cells per well were seeded into XF96-well cell culture plates, and incubated overnight at 37° C. in a 5% CO2 humidified atmosphere. The next day, cells were washed in pre-warmed XF assay media (for OCR measurement, XF assay media was supplemented with 10 mM glucose, 1 mM Pyruvate and adjusted at pH 7.4). Cells were then maintained in 175 μL/well of XF assay media at 37° C., in a non-CO2 incubator for 1 hour. During incubation, 25 μL of 80 mM glucose, 9 μM oligomycin, 1M 2-deoxyglucose (for ECAR measurement) and 25 μL of 10 μM oligomycin, 9 μM FCCP, 10 μM rotenone, 10 μM antimycin A (for OCR measurement) in XF assay media was loaded into the injection ports of the XFe-96 sensor cartridge. During the experiment, the instrument injected these inhibitors into the wells at a given time point, while ECAR/OCR was measured continuously. ECAR and OCR measurements were normalized by protein content (Sulphorhodamine B assay). Data sets were analyzed by XFe-96 software, using one-way ANOVA and Student's t-test calculations. All experiments were performed in triplicate.
It should be appreciated that numerous methods are known for functional validation, and that persons of skill in the art may select one or more depending on the validation needs (e.g., other assays that measure or approximate mitochondrial function).
(§2) Given DPI's high potency, inventors assessed its ability to rapidly affect cell metabolism.
To assess the reversibility of DPI's effects, MCF7 cells were first subjected to DPI treatment for 24 hours. Then, DPI was removed (“wash-out”) and the cells were cultured for an additional 24 hours, to allow recovery.
The inventors also examined the effects of long-term treatment with DPI on cells.

[5] = test system: MCF7 cells; conditions: 10 nM, 1 month culture
[6] = test system: MCF7 cells; conditions: 24 hours
Protocol: Inventors hypothesized that possible mechanism by which DPI inhibits CSC propagation is by inducing mitochondrial reactive oxygen species (ROS) production. To test this hypothesis, inventors determined the effects of DPI on mitochondrial ROS production, over the range of 5 to 50 nM. Briefly, production of superoxide by mitochondria was measured by the MitoSOX™ Red mitochondrial superoxide indicator (ThermoFisher Sci., M36008). 3×10^5 MCF7 cells/well were plated in 6-well plates in complete media supplemented with 10% heat-inactivated FBS. The next day, cells were treated with DPI (5, 50 nM) or Rotenone (0.5 μM) for 24 hours. Vehicle alone (DMSO) for control cells were processed in parallel. At least 30,000 events were recorded by FACS using Fortessa (BD Bioscience). Three biological replicates (repeats) were analyzed in independent experiments.

[7] = test system: MCF7 cells
Text: as §1, §2

[8] = test system: MCF7 cells; conditions: 500 nM DPI, 72 hours
Protocol: Assays were performed according to the manufacturer's protocol.

[9] = test system: MCF7 cells; test: cells; conditions: Homo sapiens
Protocol: Cells were grown for 5 days and maintained in a humidified incubator at 37° C. at an atmospheric pressure in 5% (v/v) carbon dioxide/air.

[10] = test system: C. elegans; conditions: during response to oxidative stress; cited from earlier work
[11] = test system: hTERT-BJ1 cells; conditions: five days of incubation, up to 100 nM
Protocol: as §3

c1ccc2c(c1)[I+]c1ccccc1-2 [DPI, Diphenyleneiodonium chloride]
IC50 [1]: 10 nM
L-lactate production [2]: nearly doubling the amount of lactate produced
toxicity / cell viability in MCF7 cells [3]: little or no toxicity
effect on OCR ([4]; 2.5 nM, 24-hour treatment): little or no effect
reduction of basal respiration ([4]; 5 nM, 24-hour treatment): ~50%
decrease of basal respiration rate ([4]; 10 nM, 24-hour treatment): ~85%
reduction in ATP production (ATP-linked respiration) ([4]; 10 nM, 24-hour treatment): > 90%
inhibition of mitochondrial respiration after long-term treatment ([4]; 1 month culture with 10, 25 and 50 nM): near complete inhibition of respiration
IC50 ([4]; Homo sapiens, MCF7, 1 h, read-out: IC-50, inhibition of basal respiration): 50 nM
morphology and density of the cells [5]: remains unchanged
mitochondrial ROS production ([6]; 5 nM, relative to vehicle): failed to induce any detectable mitochondrial ROS production
mitochondrial ROS production ([6]; 50 nM, versus positive control Rotenone): induced the same amount of mitochondrial ROS as 500 nM Rotenone
effect on ECAR ([7]; 2.5 nM, 24 hours of treatment): little or no effect
increase of glycolysis ([7]; 10 nM, 24 hours of treatment): ~2 fold
increase of glycolysis ([7]; one-hour treatment, 5 to 100 nM): effectively doubled
cell death (number of attached cells by DNA content) [8]: did not significantly induce any cell death
reduction of ATP levels [8]: > 80%
IC50 ([9]; MCF7, 120 h, read-out: IC-50, CSC propagation (mammosphere formation)): 3.23 nM
inhibition at 0.005 µM ([9]; MCF7, read-out: inhibition of mammosphere formation): > 50%
accumulation of lipofuscin (aging-associated marker) [10]: prevents the accumulation of lipofuscin
toxic effects / cell viability in normal fibroblasts (hTERT-BJ1) [11]: little or no toxic effects
